The text below walks through data of patent publication US7071225B2, “Arylaminopropane analogues and their use for the treatment of glaucoma” (Alcon, Inc., priority 2001, dated 2006).

Counter-ions that a name gives are not always drawn. Like-named read-outs stand apart in the source and are kept apart here.

The target in one test is T1, 5-HT2a (Rattus norvegicus, UniProt P14842).
T1 construct: endogenous in cells; host or cells: A7r5 rat vascular smooth muscle cells
The test can be described thus: 5-HT2 functional assay: [Ca2+]i mobilization (FLIPR) in A7r5 cells. Particulars: for Emax: read-out: FLIPR 5-HT2a % Emax A7r5 Ca + 2. In kind it is cell-based. The procedure: The receptor-mediated mobilization on intracellular calcium ([Ca^2+]i) was studied using the Fluorescence Imaging Plate Reader (FLIPR) instrument. Rat vascular smooth muscle cells, A7r5, were grown in a normal media of DMEM/10% FBS and 10 μg/mL gentamycin. Confluent cell monolayers were trypsinized, pelleted, and re-suspended in normal media. Cells were seeded in a 50 μL volume at a density of 20,000 cells/well in a black wall, 96-well tissue culture plate and grown for 2 days.
On the day of the experiment, one vial of FLIPR Calcium Assay Kit dye was re-suspended in 50 mL of a FLIPR buffer consisting of Hank's Balanced Salt Solution (HBSS), 20 mM HEPES, and 2.5 mM probenecid, pH 7.4. Cells were loaded with the calcium-sensitive dye by addition of an equal volume ([…]) to each well of the 96-well plate and incubated with dye for 1 h at 23° C.
Typically, test compounds were stored at 25 μM in 50% DMSO/50% Ethanol solvent. Compounds were diluted 1:50 in 20% DMSO/20% Ethanol. For “hit” screening, compounds were further diluted 1:10 in FLIPR buffer and tested at a final concentration of 10 μM. For dose-response experiments, compounds were diluted 1:50 in FLIPR buffer and serially diluted 1:10 to give a 5- or 8-point dose-response curve.
The compound plate and cell plate were placed in the FLIPR instrument. At the beginning of an experimental run, a signal test was performed to check the basal fluorescence signal from the dye-loaded cells and the uniformity of the signal across the plate. The basal fluorescence was adjusted between 8000–12000 counts by modifying the exposure time, the camera F-stop, or the laser power. Instrument settings for a typical assay were the following: laser power 0.3–0.6 W, camera F-stop F/2, and exposure time 0.4 sec. An aliquot (25 μL) of the test compound was added to the existing 100 μL dye-loaded cells at a dispensing speed of 50 μL/sec. Fluorescence data were collected in real-time at 1.0 sec intervals for the first 60 secs and at 6.0 sec intervals for an additional 120 secs. Responses were measured as peak fluorescence intensity minus basal and where appropriate were expressed as a percentage of a maximum 5-HT-induced response.

For test [1], the target named is T2, 5-HT2 receptor (Rattus norvegicus, UniProt P14842). The test can be described thus: 5-HT2 receptor binding assay ([125I]DOI competition, cerebral cortex homogenates). Particulars: 5-point, read-out: Rat Cerebral Cortex 5-HT2 IC50 5-pt (DOI). As to the method:
The assay mixture is incubated for 1 hour at 23° C. in polypropylene tubes and the assays terminated by rapid vacuum filtration over Whatman GF/B glass fiber filters previously soaked in 0.3% polyethyleneimine using ice-cold buffer. Test compounds (at different concentrations) are substituted for methiothepin. Filter-bound radioactivity is determined by scintillation spectrometry on a beta counter. The data are analyzed using a non-linear, iterative curve-fitting computer program [Trends Pharmacol. Sci., 16, 413 (1995)] to determine the compound affinity parameter.

For test [2] the following is noted: monkey; Wang et al. 1997/1998; attributed to α1A receptor activity; cited from earlier work.
Test [3] has as its target T2, 5-HT2 receptor. The test can be described thus: 5-HT2 functional assay: phosphoinositide (PI) turnover in A7r5 cells. In kind it is cell-based. Set-up: [^3H]myo-inositol-labeled A7r5 rat vascular smooth muscle cells; endogenous in cells; host or cells: A7r5 rat vascular smooth muscle cells. As to the method: The relative agonist activity of serotonergic compounds at the 5-HT2 receptor can be determined in vitro using the ability of the compounds to stimulate the production of [^3H]inositol phosphates in [^3H]myo-inositol-labeled A7r5 rat vascular smooth muscle cells by their ability to activate the enzyme phospholipase C. These cells are grown in culture plates, maintained in a humidified atmosphere of 5% CO2 and 95% air and fed semi-weekly with Dulbecco's modified Eagle medium (DMEM) containing 4.5 g/L glucose and supplemented with 2 mM glutamine, 10 μg/ml gentamicin, and 10% fetal bovine serum. For the purpose of conducting the phosphoinositide (PI) turnover experiments, the A7r5 cells are cultured in 24-well plates as previously [J. Pharmacol. Expt. Ther. 286, 411 (1998)]. Confluent cells are exposed for 24–30 hrs to 1.5 μCi [^3H]-myo-inositol (18.3 Ci/mmol) in 0.5 ml of serum-free medium. Cells are then rinsed once with DMEM/F-12 containing 10 mM LiCl prior to incubation with the test agent (or solvent as the control) in 1.0 mL of the same medium for 1 hr at 37° C., after which the medium is aspirated and 1 ml of cold 0.1 M formic acid added to stop the reaction. The chromatographic separation of [^3H]-inositol phosphates ([^3H]-IPs) on an AG-1-X8 column is performed as previously described [J. Pharmacol. Expt. Ther. 286, 411 (1998)] with sequential washes with H2O and 50 mM ammonium formate, followed by elution of the total [^3H]-IPs fraction with 1.2 M ammonium formate containing 0.1 M formic acid. The eluate (4 mL) is collected, mixed with 15 ml scintillation fluid, and the total [^3H]-IPs determined by scintillation counting on a beta-counter. Concentration-response data are analyzed by the sigmoidal fit function of the Origin Scientific Graphics software (Microcal Software, Northampton, Mass.) to determine agonist potency (EC50 value) and efficacy (Emax).

The conditions of test [4]: rabbits; Osborne et al. 1996; cited from earlier work.
[5] abbreviates: A7r5 cells, percentage of maximum 5-HT-induced response.
Setting [6] is: A7r5 cells, Ca2+ mobilization, read-out: FLIPR 5-HT2a EC50.

T2 sequence (P14842 whole entry): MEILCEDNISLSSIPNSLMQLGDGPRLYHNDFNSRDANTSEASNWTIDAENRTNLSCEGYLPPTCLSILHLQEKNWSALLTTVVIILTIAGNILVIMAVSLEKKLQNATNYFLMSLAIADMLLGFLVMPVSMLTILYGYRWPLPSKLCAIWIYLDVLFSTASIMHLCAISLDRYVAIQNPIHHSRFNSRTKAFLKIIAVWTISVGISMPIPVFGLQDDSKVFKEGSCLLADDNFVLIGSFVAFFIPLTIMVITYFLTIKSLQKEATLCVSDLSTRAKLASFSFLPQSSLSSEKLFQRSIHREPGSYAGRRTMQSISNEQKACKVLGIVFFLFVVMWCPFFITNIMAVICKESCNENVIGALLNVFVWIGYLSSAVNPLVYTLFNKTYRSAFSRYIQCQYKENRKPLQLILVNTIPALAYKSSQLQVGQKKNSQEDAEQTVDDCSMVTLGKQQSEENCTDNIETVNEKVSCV
T1 sequence (P14842 whole entry): as above

Consider “2-amino-1-(3,8-dimethoxy-naphthalen-2-yl)-propan-1-ol hydrochloride [Example 6]”, for which the “FLIPR 5-HT2a % Emax A7r5 Ca + 2” value at 5-HT2a (setting [5]) was 17.8%. Moreover, the IC50 on 5-HT2 receptor [1] amounted to 4.92 nM.

As for `COc1ccccc1N1CCN(CCCNc2c(C)c(=O)n(C)c(=O)n2C)CC1` [5-methylurapidil], in test [2], the “effect on IOP” value is reported as “lowers IOP”.

As to `COc1cc(CC(C)N)c(OC)c2ccccc12` (centres unmarked) [Example 1, 2-(1,4-Dimethoxy-naphthalen-2-yl)-1-methylethylamine hydrochloride], the figures for the EC50 on 5-HT2a and on 5-HT2 receptor [3] were 188 nM and 238 nM, respectively. Besides, the Emax at 5-HT2a (setting [5]) stood at 46.5%; at 5-HT2 receptor [3] (A7R5; read-out: Efficacy (Emax, %)), 118%.

On to `COc1cc(C(O)C(C)N)c(OC)c2ccccc12` (centres unmarked) [Example 2, 2-Amino-1-(1,4-dimethoxy-naphthalen-2-yl)-propan-1-ol hydrochloride], for which the EC50 was 1490 nM on 5-HT2a (setting [6]) and 6810 nM at 5-HT2 receptor [3]. Moreover, the Emax on 5-HT2a (setting [5]) was determined as 26.9%; on 5-HT2 receptor [3] (A7R5, read-out: Efficacy (Emax, %)), 113%.

For `COc1cc([C@H](O)[C@@H](C)N)c(OC)c2ccccc12` [Example 3, (1S,2R)-2-Amino-1-(1,4-dimethoxy-naphthalen-2-yl)-propan-1-ol hydrochloride], the concentration for a half-maximal effect (EC50) at 5-HT2a (setting [6]) is 1410 nM. Further, the Emax on 5-HT2a (setting [5]) was 28.4%.

`COc1c(CC(C)N)ccc2ccccc12` (centres unmarked) [Example 4, 2-(1-Methoxy-naphthalen-2-yl)-1-methylethylamine hydrochloride] showed an EC50 at 5-HT2a of 580 nM. Further, on 5-HT2a (setting [5]), the maximal response (Emax) was determined as 28.9%.

With `COc1c(CC(C)N)cc(Br)c2ccccc12` (centres unmarked) [Example 5, 2-(4-Bromo-1-methoxy-naphthalen-2-yl)-1-methylethylamine hydrochloride], on 5-HT2a, the EC50 was found to be 1120 nM. In addition, the Emax at 5-HT2a (setting [5]) is 38.9%.

As for `CC(N)Cc1ccc2ccccc2c1O` (centres unmarked) [Example 7, 2-(1-hydroxy-naphthalen-2-yl)-1-methylethylamine hydrochloride], the Emax on 5-HT2a (setting [5]) amounted to 17.3%.

In the case of `COc1ccc(OC)c2cc(CC(C)N)ccc12` (centres unmarked) [Example 8, 2-(5,8-dimethoxy-naphthalen-2-yl)-1-methylethylamine hydrochloride], the Emax at 5-HT2a (setting [5]) was determined as 2.6%.

For `CCCN(CCC)C1CCc2cccc(O)c2C1` (centres unmarked) [Example 8-OH-DPAT, 8-hydroxydipropylaminotetralin], the “effect on IOP” value in test [4] was “reduces IOP”.

Turning to `COc1cc(C(=O)C(C)N)c(OC)c2ccccc12` (centres unmarked) [Example 9, 2-amino-1-(1,4-dimethoxy-naphthalen-2-yl)-propan-1-one hydrochloride], the Emax at 5-HT2a (setting [5]) is 21.8%.

Regarding `CC(N)Cc1ccc2ccccc2c1` (centres unmarked) [Example 10, 2-(naphthalen-2-yl)-1-methylethylamine hydrochloride], the Emax at 5-HT2a (setting [5]) stood at 20.4%.

For the compound `COc1cc(CC(C)N)cc2ccccc12` (centres unmarked) [Example 11, 2-(4-methoxy-naphthalen-2-yl)-1-methylethylamine hydrochloride], it took 612 nM to reach a half-maximal effect on 5-HT2a (EC50). Besides, the Emax at 5-HT2a (setting [5]) turned out to be 46.4%.

With `COc1cc(CC(C)N)c(Br)c2ccccc12` (centres unmarked) [Example 12, 2-(1-Bromo-4-methoxy-naphthalen-2-yl)-1-methylethylamine hydrochloride], the 50% effective concentration (EC50) on 5-HT2a came out at 911 nM. For the same compound, on 5-HT2a (setting [5]), the Emax was found to be 37.4%.
